Like-named read-outs stand apart in the source and are kept apart here. Square brackets hold non-standard residues; d marks the D form. Peptide text beside a SMILES is read from it. * marks the point of attachment. ξ: configuration not given here. Phe(4-CF3) = N[C@@H](Cc1ccc(C(F)(F)F)cc1)C(=O)O; Phe(3-CONH2) = NC(=O)c1cccc(C[C@H](N)C(=O)O)c1; Phe(2-CONH2) = NC(=O)c1ccccc1C[C@H](N)C(=O)O; Pro(trans-4-F) = O=C(O)[C@@H]1C[C@@H](F)CN1; Oic(3aξ,7aξ) = O=C(O)[C@@H]1CC2CCCCC2N1; Dab(3S-OH) = NC[C@H](O)[C@H](N)C(=O)O; His(π-Me) = Cn1cncc1C[C@H](N)C(=O)O; Hyp = O=C(O)[C@@H]1C[C@@H](O)CN1; ΔZArg = N=C(N)NCC/C=C(\N)C(=O)O; NMeK = CN[C@@H](CCCCN)C(=O)O; dOrn = NCCC[C@@H](N)C(=O)O; Orn = NCCC[C@H](N)C(=O)O; Dab = NCC[C@H](N)C(=O)O; NH(CH2)4NH2 = NCCCCN*
What was measured:
[1] = test system: Escherichia coli ATCC 25922; assay: MIC, broth microdilution (CLSI), reference strain; settings: CAMHB
[2] = test system: Pseudomonas aeruginosa ATCC 27853; assay: MIC, broth microdilution (CLSI), reference strain; settings: CAMHB
[3] = molecular target: N-type calcium channels (Cav2.2) (Rattus norvegicus (Rat), UniProt Q02294); assay: biochemical; type: binding; settings: rat cerebral cortex, [125I]ω-conotoxin GVIA 0.001 nM, read-out: IC50 Cav2.2
[4] = test system: Staphylococcus aureus ATCC 13709; assay: MIC, broth microdilution (CLSI), reference strain; settings: CAMHB
[5] = test system: Acinetobacter baumannii ATCC 19606; assay: MIC, broth microdilution (CLSI), reference strain; settings: CAMHB
[6] = class symbol, 30 minutes at room temperature

SMILES	Ec: MIC Escherichia coli ATCC 25922 [1]	Pa: MIC Pseudomonas aeruginosa ATCC 27853 [2]	IC50 [3, 6] [nM]	Sa: MIC Staphylococcus aureus ATCC 13709 [4]	Ab: MIC Acinetobacter baumannii ATCC 19606 [5]	IC50 ([3]; value in brackets) [nM]
CN[C@@H](CCCCN)C(=O)N[C@H](C(=O)N[C@H](C(=O)NCC(=O)N[C@H](CCCN)C(=O)N1CCC[C@H]1C(=O)N[C@@H](Cc1cnc[nH]1)C(=O)N[C@@H](CCCCN)C(=O)N/C(=C\CCNC(=N)N)C(=O)N[C@@H](CCCCN)C(=O)NCCCCN)[C@@H](O)CN)[C@@H](O)CN [22.3] (H-[NMeK][Dab(3S-OH)][Dab(3S-OH)]G[dOrn]PHK[ΔZArg]K-{NH(CH2)4NH2})	++ (≤8 μg/mL)	+ (≤32 μg/mL)	< 30	++ (≤8 μg/mL)	+ (≤32 μg/mL)	
N=C(N)NCC/C=C(\NC(=O)[C@H](CCCCN)NC(=O)[C@H](Cc1c[nH]cn1)NC(=O)[C@@H]1CCCN1C(=O)[C@@H](CCCN)NC(=O)CNC(=O)[C@@H](NC(=O)[C@@H](NC(=O)[C@@H](N)CCCCN)[C@@H](O)CN)[C@@H](O)CN)C(=O)N[C@@H](CCCCN)C(=O)NCCCCN [Odilomycin C, reference compound] (H-K[Dab(3S-OH)][Dab(3S-OH)]G[dOrn]PHK[ΔZArg]K-{NH(CH2)4NH2}; N-terminus and C-terminus assumed)			< 30			9
C[C@H](NC(=O)[C@@H](NC(=O)[C@@H](N)CCCCN)[C@@H](O)CN)C(=O)NCC(=O)N[C@H](CCCN)C(=O)N1CCC[C@H]1C(=O)N[C@@H](Cc1ccccc1C(N)=O)C(=O)N[C@@H](CCCCN)C(=O)N/C(=C\CCNC(=N)N)C(=O)O [24.82] (H-K[Dab(3S-OH)]AG[dOrn]P[Phe(2-CONH2)]K[ΔZArg]-OH)	− (>32 μg/mL)	− (>32 μg/mL)		+ (≤32 μg/mL)	− (>32 μg/mL)	
C[C@@H](O)[C@H](NC(=O)[C@H](CCN)NC(=O)[C@@H](N)CCCCN)C(=O)NCC(=O)N[C@H](CCCN)C(=O)N1CCC[C@H]1C(=O)N[C@@H](Cc1cnc[nH]1)C(=O)N[C@@H](CCCCN)C(=O)N/C(=C\CCNC(=N)N)C(=O)N[C@@H](CCCCN)C(=O)NCCCCN [15.3] (H-K[Dab]TG[dOrn]PHK[ΔZArg]K-{NH(CH2)4NH2})	− (>32 μg/mL)	− (>32 μg/mL)		++ (≤8 μg/mL)	− (>32 μg/mL)	
N=C(N)NCC/C=C(\NC(=O)[C@H](CCCCN)NC(=O)[C@H](Cc1cnc[nH]1)NC(=O)[C@@H]1CCCN1C(=O)[C@@H](CCCN)NC(=O)CNC(=O)[C@H](CO)NC(=O)[C@@H](NC(=O)[C@@H](N)CCCCN)[C@@H](O)CN)C(=O)N[C@@H](CCCCN)C(=O)NCCCCN [26.1] (H-K[Dab(3S-OH)]SG[dOrn]PHK[ΔZArg]K-{NH(CH2)4NH2})	++ (≤8 μg/mL)	++ (≤8 μg/mL)		++ (≤8 μg/mL)	+ (≤32 μg/mL)	
C[C@H](NC(=O)[C@@H](NC(=O)[C@@H](N)CCCCN)[C@@H](O)CN)C(=O)NCC(=O)N[C@H](CCCN)C(=O)N1CCC[C@H]1C(=O)N[C@@H](Cc1ccc(C(F)(F)F)cc1)C(=O)N[C@@H](CCCCN)C(=O)N/C(=C\CCNC(=N)N)C(=O)O [24.94] (H-K[Dab(3S-OH)]AG[dOrn]P[Phe(4-CF3)]K[ΔZArg]-OH)	++ (≤8 μg/mL)	− (>32 μg/mL)		++ (≤8 μg/mL)	− (>32 μg/mL)	
CN[C@@H](CCCCN)C(=O)N[C@H](C(=O)N[C@@H](C)C(=O)NCC(=O)N[C@H](CCCN)C(=O)N1CCC[C@H]1C(=O)N[C@@H](Cc1cnc[nH]1)C(=O)N[C@@H](CCCCN)C(=O)N/C(=C\CCNC(=N)N)C(N)=O)[C@@H](O)CN [24.63] (H-[NMeK][Dab(3S-OH)]AG[dOrn]PHK[ΔZArg]-NH2)	++ (≤8 μg/mL)	− (>32 μg/mL)		++ (≤8 μg/mL)	− (>32 μg/mL)	
CN[C@@H](CCCCN)C(=O)N[C@H](C(=O)N[C@@H](C)C(=O)NCC(=O)N[C@H](CCCN)C(=O)N1CCC[C@H]1C(=O)N[C@@H](Cc1cnc[nH]1)C(=O)N[C@@H](CCCCN)C(=O)N/C(=C\CCNC(=N)N)C(=O)N[C@@H](CCCCN)C(=O)NCCCCN)[C@@H](O)CN [24.61] (H-[NMeK][Dab(3S-OH)]AG[dOrn]PHK[ΔZArg]K-{NH(CH2)4NH2})	++ (≤8 μg/mL)	+ (≤32 μg/mL)		++ (≤8 μg/mL)	+ (≤32 μg/mL)	
C[C@H](NC(=O)[C@@H](NC(=O)[C@@H](N)CCCCN)[C@@H](O)CN)C(=O)NCC(=O)N[C@H](CCCN)C(=O)N1CCC[C@H]1C(=O)N[C@@H](Cc1cncn1C)C(=O)N[C@@H](CCCCN)C(=O)N/C(=C\CCNC(=N)N)C(=O)O [24.91] (H-K[Dab(3S-OH)]AG[dOrn]P[His(π-Me)]K[ΔZArg]-OH)	+ (≤32 μg/mL)	− (>32 μg/mL)		+ (≤32 μg/mL)	− (>32 μg/mL)	
N=C(N)NCC/C=C(\NC(=O)[C@H](CCCCN)NC(=O)[C@H](Cc1cccc(C(N)=O)c1)NC(=O)[C@@H]1CCCN1C(=O)[C@@H](CCCN)NC(=O)CNC(=O)[C@H](CCCN)NC(=O)[C@@H](NC(=O)[C@@H](N)CCCCN)[C@@H](O)CN)C(=O)O [211.3] (H-K[Dab(3S-OH)][Orn]G[dOrn]P[Phe(3-CONH2)]K[ΔZArg]-OH)	++ (≤8 μg/mL)	− (>32 μg/mL)		++ (≤8 μg/mL)	− (>32 μg/mL)	
C[C@H](NC(=O)[C@@H](NC(=O)[C@@H](N)CCCCN)[C@@H](O)CN)C(=O)NCC(=O)N[C@H](CCCN)C(=O)N1C[C@H](F)C[C@H]1C(=O)N[C@@H](Cc1cnc[nH]1)C(=O)N[C@@H](CCCCN)C(=O)N/C(=C\CCNC(=N)N)C(=O)N[C@@H](CCCCN)C(=O)NCCCCN [24.4] (H-K[Dab(3S-OH)]AG[dOrn][Pro(trans-4-F)]HK[ΔZArg]K-{NH(CH2)4NH2})	++ (≤8 μg/mL)	+ (≤32 μg/mL)		++ (≤8 μg/mL)	+ (≤32 μg/mL)	
CSCC[C@H](NC(=O)[C@@H]1CCCN1C(=O)[C@@H](CCCN)NC(=O)CNC(=O)[C@H](C)NC(=O)[C@@H](NC(=O)[C@@H](N)CCCCN)[C@@H](O)CN)C(=O)N[C@@H](CCCCN)C(=O)N/C(=C\CCNC(=N)N)C(=O)O [24.131] (H-K[Dab(3S-OH)]AG[dOrn]PMK[ΔZArg]-OH)	+ (≤32 μg/mL)	− (>32 μg/mL)		+ (≤32 μg/mL)	− (>32 μg/mL)	
C[C@H](NC(=O)[C@@H](NC(=O)[C@@H](N)CCCCN)[C@@H](O)CN)C(=O)NCC(=O)N[C@H](CCCN)C(=O)N1C[C@H](O)C[C@H]1C(=O)N[C@@H](Cc1cnc[nH]1)C(=O)N[C@@H](CCCCN)C(=O)N/C(=C\CCNC(=N)N)C(=O)O [24.70] (H-K[Dab(3S-OH)]AG[dOrn][Hyp]HK[ΔZArg]-OH)	− (>32 μg/mL)	− (>32 μg/mL)		+ (≤32 μg/mL)	− (>32 μg/mL)	
N=C(N)NCC/C=C(\NC(=O)[C@H](CCCCN)NC(=O)[C@H](Cc1c[nH]c2ccccc12)NC(=O)[C@@H]1CCCN1C(=O)[C@@H](CCCN)NC(=O)CNC(=O)[C@H](CCCN)NC(=O)[C@@H](NC(=O)[C@@H](N)CCCCN)[C@@H](O)CN)C(=O)O [211.11] (H-K[Dab(3S-OH)][Orn]G[dOrn]PWK[ΔZArg]-OH)	++ (≤8 μg/mL)	− (>32 μg/mL)		++ (≤8 μg/mL)	− (>32 μg/mL)	
C[C@H](NC(=O)[C@@H](NC(=O)[C@@H](N)CCCCN)[C@@H](O)CN)C(=O)NCC(=O)N[C@H](CCCN)C(=O)N1CCC[C@H]1C(=O)N[C@H](C(=O)N[C@@H](CCCCN)C(=O)N/C(=C\CCNC(=N)N)C(=O)O)[C@@H](C)O [24.137] (H-K[Dab(3S-OH)]AG[dOrn]PTK[ΔZArg]-OH)	− (>32 μg/mL)	− (>32 μg/mL)		+ (≤32 μg/mL)	− (>32 μg/mL)	
C[C@H](NC(=O)[C@H](CCN)NC(=O)[C@@H](N)CCCCN)C(=O)NCC(=O)N[C@H](CCCN)C(=O)N1C2CCCCC2C[C@H]1C(=O)N[C@@H](Cc1cnc[nH]1)C(=O)N[C@@H](CCCCN)C(=O)N/C(=C\CCNC(=N)N)C(=O)N[C@@H](CCCCN)C(=O)NCCCCN (stereo partly shown) [14.19] (H-K[Dab]AG[dOrn][Oic(3aξ,7aξ)]HK[ΔZArg]K-{NH(CH2)4NH2})	− (>32 μg/mL)	− (>32 μg/mL)		++ (≤8 μg/mL)	− (>32 μg/mL)	
C[C@H](NC(=O)[C@H](CCN)NC(=O)[C@@H](N)CCCCN)C(=O)NCC(=O)N[C@H](CCCN)C(=O)N1CCC[C@H]1C(=O)N[C@@H](Cc1cnc[nH]1)C(=O)N[C@@H](CCCCN)C(=O)N/C(=C\CCNC(=N)N)C(=O)N[C@@H](CCCCN)C(=O)O [14.21] (H-K[Dab]AG[dOrn]PHK[ΔZArg]K-OH)	− (>32 μg/mL)	− (>32 μg/mL)		+ (≤32 μg/mL)	− (>32 μg/mL)	

From US10626144B2, “Peptide derivatives and uses thereof” (Nosopharm, priority 2014, dated 2020)
